Where two headings read alike, the source gives them in different places.
Columns and labels:
[1] = test system: patients with atherosclerosis undergoing PCI
Description: The protocol called for aspirin (75 to 325 mg) to be administered to all patients. […] The choice of a periprocedural anticoagulant (bivalirudin, unfractionated heparin, low-molecular-weight heparin, or fondaparinux) was also at the discretion of the investigator. Glycoprotein IIb/IIIa inhibitors were allowed only as rescue therapy during PCI to treat new or persistent thrombus formation, slow or no reflow, side-branch compromise, dissection, or distal embolization. The investigator at the site determined the protocol for management of the arterial sheath.
The inclusion criteria for the trial were men or nonpregnant women, 18 years of age or older with coronary atherosclerosis who required PCI for stable angina, a non-ST-segment elevation acute coronary syndrome, or ST-segment elevation myocardial infarction (STEMI). Patients were required to provide written informed consent.
Major exclusion criteria were receipt of a P2Y12 inhibitor or abciximab at any time in the 7 days before randomization and receipt of eptifibatide or tirofiban or fibrinolytic therapy in the 12 hours before randomization.
The primary efficacy end point was the composite rate of death from any cause, myocardial infarction, IDR, or stent thrombosis in the 48 hours after randomization in the modified intention-to-treat population (which comprised patients who actually underwent PCI and received the study drug). […] The key secondary end point was the incidence of stent thrombosis at 48 hours. This end point included definite stent thrombosis, defined according to the criteria of the Academic Research Consortium, or intraprocedural stent thrombosis, which was assessed, with group assignments concealed, at an angiographic core laboratory (Cardiovascular Research Foundation). Intraprocedural stent thrombosis was defined as any new or worsened thrombus related to the stent procedure that was confirmed angiographically. Events of death, myocardial infarction, IDR, and stent thrombosis that occurred during the first 30 days after randomization were adjudicated by the clinical events committee at the Duke Clinical Research Institute. The study adhered to the universal definition of myocardial infarction for myocardial infarction unrelated to PCI but expanded on the definition of PCI-related myocardial infarction.
The numbers and percentages of patients within each analysis population (modified intention-to-treat, intention-to-treat, and safety) were summarized according to treatment group. The primary efficacy analysis of the rate of the composite end point of death from any cause, myocardial infarction, IDR, or stent thrombosis (with all events adjudicated by the clinical events committee) in the 48 hours after randomization was conducted in the modified intention-to-treat population. The primary safety analysis was conducted in the safety population, which comprised all patients who underwent randomization and received at least one dose of the study drug; patients were classified according to the actual treatment received. All calculations and statistical analyses were performed with the use of SAS software, version 9.2.

[2] = test system: patients with acute coronary syndromes undergoing PCI; test: Example 2: bleeding (GUSTO, TIMI, ACUITY) and adverse events up to 48 hours; assay type: in vivo, human
Description: Multiple definitions of bleeding were used for full disclosure of bleeding risks associated with cangrelor: […] N Engl J Med 329:673-82 (1993); mild, moderate, or severe/life-threatening based on transfusion use and presence/absence of hemodynamic compromise); […] Investigators reported adverse and serious adverse events according to International Conference on Harmonization guidance (International Conference on Harmonization (ICH) Guidance Documents. U.S. Food and Drug Administration Web site. (Accessed on Oct. 8, 2009, at the FDA website beginning with “www.” and ending with “fda.gov/RegulatoryInformation/Guidances/ucm122049.htm”)).

[3] = 48 hours, ITT, rate in parentheses

**Q.** For `COC(=O)[C@H](c1ccccc1Cl)N1CCc2sccc2C1` [Clopidogrel, clopidogrel, reference compound], which “rate of stent thrombosis (key secondary efficacy end point)” value ([1]; 48 hours) is on record?
**A.** The value was 1.4%.

**Q.** What about the Death ([1]; 48 hours, ITT, n/N) of the same molecule?
**A.** Its Death is 21/5561.

**Q.** And the Death/MI ([1]; 48 hours, ITT, n/N)?
**A.** The Death/MI was 275/5561.

**Q.** And the Death/MI/IDR ([1]; 48 hours, ITT, n/N)?
**A.** Its Death/MI/IDR is 289/5561.

**Q.** And the Death/MI/IDR/ST ([1]; 48 hours, ITT, n/N)?
**A.** The Death/MI/IDR/ST was 325/5561.

**Q.** What about the “Death/MI/IDR/ST/GUSTO Severe Bleeding (Net Adverse Clinical Events, NACE)” value ([1]; 48 hours, ITT, n/N) of the same molecule?
**A.** Its value is 330/5561.

**Q.** And the Death/MI/ST ([1]; 48 hours, ITT, n/N)?
**A.** The Death/MI/ST was 315/5561.

**Q.** What about the “Death/Q-wave MI/IDR” value ([1]; 48 hours, ITT, n/N) of the same molecule?
**A.** The value was 67/5561.

**Q.** What about the Death/ST ([1]; 48 hours, ITT, n/N) of the same molecule?
**A.** Its Death/ST is 90/5561.

**Q.** What about the IDR ([1]; 48 hours, ITT, n/N) of the same molecule?
**A.** The IDR was 38/5561.

**Q.** And the MI ([1]; 48 hours, ITT, n/N)?
**A.** The MI was 255/5561.

**Q.** What about the “Q-wave MI” value ([1]; 48 hours, ITT, n/N) of the same molecule?
**A.** Its value is 18/5561.

**Q.** And the Stent thrombosis ([1]; 48 hours, ITT, n/N)?
**A.** Its Stent thrombosis is 74/5561.

**Q.** What about the Death [1, 3] of the same molecule?
**A.** The Death was “(0.4)”.

**Q.** What about the Death/MI [1, 3] of the same molecule?
**A.** Its Death/MI is “(5.0)”.

**Q.** And the Death/MI/IDR [1, 3]?
**A.** The Death/MI/IDR was “(5.2)”.

**Q.** And the Death/MI/IDR/ST [1, 3]?
**A.** Its Death/MI/IDR/ST is “(5.8)”.

**Q.** What about the “Death/MI/IDR/ST/GUSTO Severe Bleeding (Net Adverse Clinical Events, NACE)” value [1, 3] of the same molecule?
**A.** Its value is “(5.9)”.

**Q.** What about the Death/MI/ST [1, 3] of the same molecule?
**A.** Its Death/MI/ST is “(5.7)”.

**Q.** What about the “Death/Q-wave MI/IDR” value [1, 3] of the same molecule?
**A.** Its value is “(1.2)”.

**Q.** And the Death/ST [1, 3]?
**A.** Its Death/ST is “(1.6)”.

**Q.** And the IDR [1, 3]?
**A.** The IDR was “(0.7)”.

**Q.** And the MI [1, 3]?
**A.** The MI was “(4.6)”.

**Q.** And the “Q-wave MI” value [1, 3]?
**A.** Its value is “(0.3)”.

**Q.** And the Stent thrombosis [1, 3]?
**A.** The Stent thrombosis was “(1.3)”.

**Q.** What about the “rate of primary composite efficacy end point (death from any cause, myocardial infarction, IDR, or stent thrombosis)” value ([1]; 48 hours, modified intention-to-treat) of the same molecule?
**A.** Its value is 5.9%.

**Q.** What about the “net rate of adverse clinical events (primary efficacy plus primary safety end point)” value ([1]; 48 hours, post hoc) of the same molecule?
**A.** Its value is 6.0%.

**Q.** And the Stent thrombosis ([1]; 30 days)?
**A.** Its Stent thrombosis is 1.9%.

**Q.** And the “rate of the composite efficacy end point” value ([1]; 30 days)?
**A.** The value was 7.0%.

**Q.** And the “rate of intraprocedural stent thrombosis” value ([1]; in vivo)?
**A.** Its value is 1.0%.

**Q.** And the “rate of procedural complications” value ([1]; in vivo)?
**A.** Its value is 4.5%.

**Q.** And the “use of rescue therapy with a glycoprotein IIb/IIIa inhibitor” value ([1]; in vivo)?
**A.** The value was 3.5%.

**Q.** And the “ACUITY criteria Major bleeding” value ([2]; 48-hour, safety population)?
**A.** The value was 126 (2.9) no. (%).

**Q.** What about the “ACUITY criteria Minor bleeding” value ([2]; 48-hour, safety population) of the same molecule?
**A.** Its value is 663 (15.2) no. (%).

**Q.** What about the “Access site bleeding requiring radiologic or surgical intervention” value ([2]; 48-hour, safety population) of the same molecule?
**A.** Its value is 10 (0.2) no. (%).

**Q.** What about the Any blood transfusion ([2]; 48-hour, safety population) of the same molecule?
**A.** The Any blood transfusion was 42 (1.0) no. (%).

**Q.** And the Any platelet transfusion ([2]; 48-hour, safety population)?
**A.** The Any platelet transfusion was 5 (0.1) no. (%).

**Q.** What about the “Drop in hemoglobin and/or hematocrit” value ([2]; 48-hour, safety population) of the same molecule?
**A.** Its value is 63 (1.4) no. (%).

**Q.** And the Ecchymosis ([2]; 48-hour, safety population)?
**A.** Its Ecchymosis is 234 (5.4) no. (%).

**Q.** What about the Epistaxis ([2]; 48-hour, safety population) of the same molecule?
**A.** Its Epistaxis is 22 (0.5) no. (%).

**Q.** And the “GUSTO criteria Mild bleeding” value ([2]; 48-hour, safety population)?
**A.** The value was 739 (16.9) no. (%).

**Q.** What about the “GUSTO criteria Moderate bleeding” value ([2]; 48-hour, safety population) of the same molecule?
**A.** Its value is 34 (0.8) no. (%).

**Q.** And the “GUSTO criteria Severe/life-threatening bleeding” value ([2]; 48-hour, safety population)?
**A.** Its value is 11 (0.3) no. (%).

**Q.** What about the “Hematoma <5 cm at puncture site” value ([2]; 48-hour, safety population) of the same molecule?
**A.** Its value is 222 (5.1) no. (%).

**Q.** And the “Hematoma ≧5 cm at puncture site” value ([2]; 48-hour, safety population)?
**A.** Its value is 76 (1.7) no. (%).

**Q.** And the Hemodynamic compromise ([2]; 48-hour, safety population)?
**A.** The Hemodynamic compromise was 11 (0.3) no. (%).

**Q.** What about the Intracranial hemorrhage ([2]; 48-hour, safety population) of the same molecule?
**A.** The Intracranial hemorrhage was 0 (0.0) no. (%).

**Q.** What about the Intraocular ([2]; 48-hour, safety population) of the same molecule?
**A.** The Intraocular was 0 (0.0) no. (%).

**Q.** What about the “Oozing at puncture site” value ([2]; 48-hour, safety population) of the same molecule?
**A.** Its value is 319 (7.3) no. (%).

**Q.** And the Reoperation for bleeding ([2]; 48-hour, safety population)?
**A.** Its Reoperation for bleeding is 1 (0.0) no. (%).

**Q.** What about the Retroperitoneal ([2]; 48-hour, safety population) of the same molecule?
**A.** The Retroperitoneal was 10 (0.2) no. (%).

**Q.** What about the “TIMI criteria Major bleeding” value ([2]; 48-hour, safety population) of the same molecule?
**A.** The value was 14 (0.3) no. (%).

**Q.** What about the “TIMI criteria Minor bleeding” value ([2]; 48-hour, safety population) of the same molecule?
**A.** Its value is 26 (0.6) no. (%).

**Q.** What about the Thrombocytopenia ([2]; 48-hour, safety population) of the same molecule?
**A.** The Thrombocytopenia was 7 (0.2) no. (%).

**Q.** And the Dyspnea ([2]; human, in vivo, 48 h)?
**A.** Its Dyspnea is 0.4%.

**Q.** What about the Serious adverse events ([2]; human, in vivo, 48 h) of the same molecule?
**A.** The Serious adverse events was 2.7%.

**Q.** What about the “discontinuation of study drug due to an adverse event” value ([2]; human, in vivo, 48 h) of the same molecule?
**A.** Its value is 0.5%.

**Q.** What about the Reported adverse events ([2]; safety population) of the same molecule?
**A.** The Reported adverse events was 25.7%.
